Values of other authors in publication PMC7583271 (Journal of Insect Science, 2020).

Molecular target: antennal binding protein (PxylABP, accession no. AB189031.1)
Conditions: unit inferred, ref Deng et al. 2016

For C=CCN=C=S [Allyl isothiocyanate], which Kd is on record?
Its Kd is 910 nM.
